Data reported in ChEMBL document CHEMBL1132937, “Protease inhibitors: synthesis of potent bacterial collagenase and matrix metalloproteinase inhibitors incorporating N-4-nitrobenzylsulfonylglycine hydroxamate moieties” (J Med Chem, 2000).
pKi: −log10 of the molar value.

Tests used:
[1] = molecular target: Matrix metalloproteinase-9 (Homo sapiens, UniProt P14780)
Description: Inhibitory activity against the Matrix metalloprotease-9

Neutrophil collagenase = Neutrophil collagenase (Homo sapiens, UniProt P22894)
Description: Inhibitory activity against the Matrix Metalloprotease-8

Interstitial collagenase = molecular target: T1, Interstitial collagenase (Homo sapiens, UniProt P03956)
T1 sequence (P03956 whole entry): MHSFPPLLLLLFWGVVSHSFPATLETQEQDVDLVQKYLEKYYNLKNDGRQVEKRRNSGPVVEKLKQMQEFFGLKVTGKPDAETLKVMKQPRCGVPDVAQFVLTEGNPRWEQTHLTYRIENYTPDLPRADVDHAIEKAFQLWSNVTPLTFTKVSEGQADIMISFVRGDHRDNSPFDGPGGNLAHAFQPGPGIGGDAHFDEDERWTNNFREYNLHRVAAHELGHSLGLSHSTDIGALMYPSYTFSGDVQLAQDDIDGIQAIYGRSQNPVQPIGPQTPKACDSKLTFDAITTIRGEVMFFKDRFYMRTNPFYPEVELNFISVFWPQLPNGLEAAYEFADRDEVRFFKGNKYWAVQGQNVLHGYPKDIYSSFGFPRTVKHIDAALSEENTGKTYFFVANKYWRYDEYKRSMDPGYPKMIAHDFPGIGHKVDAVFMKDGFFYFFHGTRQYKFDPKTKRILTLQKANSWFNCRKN
Description: Inhibitory activity against the Matrix Metalloprotease 1 (MMP-1)

[2] = molecular target: 72 kDa type IV collagenase (Homo sapiens, UniProt P08253)
Sequence of 72 kDa type IV collagenase (P08253 whole entry): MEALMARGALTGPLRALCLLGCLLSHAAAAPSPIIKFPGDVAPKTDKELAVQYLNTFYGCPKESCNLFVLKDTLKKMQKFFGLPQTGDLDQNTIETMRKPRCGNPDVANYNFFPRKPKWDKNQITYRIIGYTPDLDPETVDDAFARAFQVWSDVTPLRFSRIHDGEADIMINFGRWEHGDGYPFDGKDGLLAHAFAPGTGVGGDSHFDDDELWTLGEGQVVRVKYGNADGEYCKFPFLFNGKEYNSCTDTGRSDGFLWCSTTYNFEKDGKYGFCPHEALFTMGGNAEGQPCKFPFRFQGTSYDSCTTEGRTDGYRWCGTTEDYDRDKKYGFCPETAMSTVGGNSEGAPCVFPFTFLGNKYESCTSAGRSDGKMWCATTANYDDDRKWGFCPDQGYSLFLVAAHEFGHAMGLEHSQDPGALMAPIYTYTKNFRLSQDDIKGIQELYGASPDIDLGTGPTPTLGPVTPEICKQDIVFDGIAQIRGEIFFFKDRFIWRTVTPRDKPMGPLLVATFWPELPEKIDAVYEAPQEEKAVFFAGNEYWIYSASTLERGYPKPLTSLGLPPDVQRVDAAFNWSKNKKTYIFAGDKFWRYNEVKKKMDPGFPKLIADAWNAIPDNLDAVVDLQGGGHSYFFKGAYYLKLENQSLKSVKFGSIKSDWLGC
Description: Inhibitory activity against the Matrix Metalloprotease 2 (MMP-2)

Sequence of Neutrophil collagenase (P22894 whole entry): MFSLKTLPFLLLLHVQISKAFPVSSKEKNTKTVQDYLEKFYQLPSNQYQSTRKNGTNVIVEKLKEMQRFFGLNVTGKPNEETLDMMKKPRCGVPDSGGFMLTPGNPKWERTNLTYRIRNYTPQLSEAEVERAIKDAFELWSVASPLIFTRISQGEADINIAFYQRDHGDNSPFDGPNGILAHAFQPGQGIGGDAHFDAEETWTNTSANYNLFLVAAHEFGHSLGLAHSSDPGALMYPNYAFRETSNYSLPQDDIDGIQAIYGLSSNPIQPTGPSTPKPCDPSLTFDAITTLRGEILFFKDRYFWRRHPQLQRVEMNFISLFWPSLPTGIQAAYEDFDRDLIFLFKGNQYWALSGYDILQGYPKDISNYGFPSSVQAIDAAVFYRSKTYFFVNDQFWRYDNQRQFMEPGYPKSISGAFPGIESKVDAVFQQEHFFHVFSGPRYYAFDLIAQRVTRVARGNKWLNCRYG
Sequence of Matrix metalloproteinase-9 (P14780 whole entry): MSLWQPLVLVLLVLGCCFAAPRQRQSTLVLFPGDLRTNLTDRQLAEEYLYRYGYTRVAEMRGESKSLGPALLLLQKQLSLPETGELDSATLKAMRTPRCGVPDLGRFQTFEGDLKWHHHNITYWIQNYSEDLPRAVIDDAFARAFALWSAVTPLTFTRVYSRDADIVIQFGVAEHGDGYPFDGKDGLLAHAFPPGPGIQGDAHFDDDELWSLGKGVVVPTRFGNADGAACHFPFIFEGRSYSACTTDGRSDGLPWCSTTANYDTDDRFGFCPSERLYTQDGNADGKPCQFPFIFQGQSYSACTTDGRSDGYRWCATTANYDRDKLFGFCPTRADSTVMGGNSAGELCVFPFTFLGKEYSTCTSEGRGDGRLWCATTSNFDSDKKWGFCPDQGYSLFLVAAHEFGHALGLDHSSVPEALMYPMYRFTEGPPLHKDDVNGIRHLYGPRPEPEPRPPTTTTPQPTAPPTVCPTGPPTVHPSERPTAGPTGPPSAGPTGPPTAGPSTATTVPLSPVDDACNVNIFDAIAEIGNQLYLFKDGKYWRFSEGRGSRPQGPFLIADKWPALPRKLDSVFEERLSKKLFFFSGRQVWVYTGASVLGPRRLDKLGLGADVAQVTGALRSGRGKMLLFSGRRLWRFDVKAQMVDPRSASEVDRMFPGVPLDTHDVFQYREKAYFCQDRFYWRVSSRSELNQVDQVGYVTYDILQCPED

| Structure (SMILES) | pKi [1] | pKi (Neutrophil collagenase) | pKi (Interstitial collagenase) | pKi [2] |
| --- | --- | --- | --- | --- |
| O=C(CN(Cc1ccc([N+](=O)[O-])cc1)C(=O)Nc1ccc(Cl)c(Cl)c1)NO | 8.15 | 8.30 | 7.51 | 8.22 |
| Cc1ccc(S(=O)(=O)NC(=O)Nc2ccc(S(=O)(=O)N(CC(=O)O)Cc3ccc([N+](=O)[O-])cc3)cc2)cc1 | 7.60 | 7.55 | 7.03 | 7.62 |
| O=C(CN(Cc1ccc([N+](=O)[O-])cc1)S(=O)(=O)c1ccc(NC(=O)NS(=O)(=O)c2ccc(F)cc2)cc1)NO | 8.92 | 9.30 | 7.27 | 9.22 |
| O=C(CN(Cc1ccc([N+](=O)[O-])cc1)S(=O)(=O)c1ccccc1[N+](=O)[O-])NO | 7.85 | 7.89 | 7.23 | 7.82 |
| Cc1ccc(S(=O)(=O)NC(=O)Nc2cccc(S(=O)(=O)N(CC(=O)NO)Cc3ccc([N+](=O)[O-])cc3)c2)cc1 | 8.51 | 8.68 | 7.28 | 8.60 |
| CC(C)(C)OC(=O)Nc1ccc(S(=O)(=O)N(CC(=O)NO)Cc2ccc([N+](=O)[O-])cc2)cc1 | 8.00 | 7.96 | 7.77 | 8.00 |
| O=C(CN(Cc1ccc([N+](=O)[O-])cc1)S(=O)(=O)c1cccc(C(F)(F)F)c1)NO | 9.10 | 9.15 | 8.30 | 8.96 |
| O=C(CN(Cc1ccc([N+](=O)[O-])cc1)Sc1ccc([N+](=O)[O-])cc1)NO | 7.96 | 8.10 | 7.74 | 8.00 |
| Cc1cc(C)c(S(=O)(=O)N(CC(=O)NO)Cc2ccc([N+](=O)[O-])cc2)c(C)c1 | 7.41 | 7.54 | 7.44 | 7.60 |
| O=C(CN(Cc1ccc([N+](=O)[O-])cc1)S(=O)(=O)c1cccc(NC(=O)NS(=O)(=O)c2ccc(Cl)cc2)c1)NO | 8.80 | 8.89 | 7.30 | 8.82 |
| O=C(CN(Cc1ccc([N+](=O)[O-])cc1)S(=O)(=O)c1ccc(NC(=O)NS(=O)(=O)c2ccc(Cl)cc2)cc1)NO | 9.00 | 8.96 | 7.30 | 9.10 |
| O=C(CN(Cc1ccc([N+](=O)[O-])cc1)C(=S)NC(=O)c1ccccc1)NO | 8.85 | 8.82 | 7.43 | 8.70 |
| COc1ccc(S(=O)(=O)N(CC(=O)NO)Cc2ccc([N+](=O)[O-])cc2)cc1NC(=O)OC(C)(C)C | 8.15 | 8.15 | 7.60 | 8.30 |
| O=C(O)CN(Cc1ccc([N+](=O)[O-])cc1)S(=O)(=O)c1ccc(NC(=O)NS(=O)(=O)c2ccc(Cl)cc2)cc1 | 7.44 | 7.62 | 7.02 | 7.68 |
| O=C(CN(Cc1ccc([N+](=O)[O-])cc1)S(=O)(=O)c1ccc([N+](=O)[O-])cc1)NO | 8.10 | 8.15 | 7.82 | 8.05 |
| Cc1ccc(S(=O)(=O)N(CC(=O)NO)Cc2ccc([N+](=O)[O-])cc2)cc1 | 7.57 | 7.62 | 7.52 | 7.70 |
| CN(C)c1cccc2c(S(=O)(=O)N(CC(=O)NO)Cc3ccc([N+](=O)[O-])cc3)cccc12 | 7.28 | 7.24 | 7.08 | 7.39 |
| Cc1ccc(S(=O)(=O)NC(=O)Nc2cccc(S(=O)(=O)N(CC(=O)O)Cc3ccc([N+](=O)[O-])cc3)c2)cc1 | 7.68 | 7.52 | < 7.00 | 7.68 |
| O=C(CN(Cc1ccc([N+](=O)[O-])cc1)S(=O)(=O)c1ccc(I)cc1)NO | 7.80 | 7.77 | 7.54 | 7.72 |
| O=C(CN(Cc1ccc([N+](=O)[O-])cc1)S(=O)(=O)c1ccc(NC(=O)NS(=O)(=O)c2ccccc2)cc1)NO | 9.05 | 9.15 | 7.21 | 9.22 |
| CC(=O)Nc1ccc(S(=O)(=O)N(CC(=O)NO)Cc2ccc([N+](=O)[O-])cc2)cc1 | 7.92 | 8.05 | 7.85 | 8.10 |
| CN(C)S(=O)(=O)N(CC(=O)NO)Cc1ccc([N+](=O)[O-])cc1 | 7.37 | 7.46 | 7.59 | 7.44 |

| Structure (SMILES) | pKi [1] | pKi (Neutrophil collagenase) | pKi (Interstitial collagenase) | pKi [2] |
| --- | --- | --- | --- | --- |
| O=C(CN(Cc1ccc([N+](=O)[O-])cc1)S(=O)(=O)C(F)(F)C(F)(F)C(F)(F)C(F)(F)C(F)(F)C(F)(F)C(F)(F)C(F)(F)F)NO | 8.89 | 8.89 | 7.10 | 9.05 |
| O=C(CN(Cc1ccc([N+](=O)[O-])cc1)S(=O)(=O)c1ccc(F)cc1)NO | 7.85 | 7.82 | 7.72 | 7.82 |
| O=C(CN(Cc1ccc([N+](=O)[O-])cc1)S(=O)(=O)C(Cl)(Cl)Cl)NO | 7.60 | 7.72 | 7.62 | 7.77 |
| Cc1ccccc1S(=O)(=O)NC(=O)Nc1ccc(S(=O)(=O)N(CC(=O)NO)Cc2ccc([N+](=O)[O-])cc2)cc1 | 9.15 | 8.82 | 7.14 | 8.80 |
| O=C(CN(Cc1ccc([N+](=O)[O-])cc1)C(=O)NS(=O)(=O)c1ccccc1)NO | 8.52 | 8.40 | 7.41 | 8.30 |
| O=C(CN(Cc1ccc([N+](=O)[O-])cc1)C(=O)NS(=O)(=O)c1ccc(Cl)cc1)NO | 8.30 | 8.40 | 7.34 | 8.52 |
| Cc1ccc(S(=O)(=O)NC(=O)N(CC(=O)NO)Cc2ccc([N+](=O)[O-])cc2)cc1 | 8.10 | 8.22 | 7.27 | 8.22 |
| O=C(O)CN(Cc1ccc([N+](=O)[O-])cc1)S(=O)(=O)c1cccc(NC(=O)NS(=O)(=O)c2ccccc2)c1 | 7.66 | 7.57 | < 7.00 | 7.72 |
| O=C(CN(Cc1ccc([N+](=O)[O-])cc1)S(=O)(=O)c1ccc(C(=O)O)cc1)NO | 8.55 | 8.62 | 7.47 | 8.60 |
| O=C(CN(Cc1ccc([N+](=O)[O-])cc1)S(=O)(=O)c1cccc(NC(=O)NS(=O)(=O)c2ccccc2)c1)NO | 8.89 | 9.00 | 7.22 | 8.92 |
| CC(C)(C)OC(=O)Nc1cccc(S(=O)(=O)N(CC(=O)NO)Cc2ccc([N+](=O)[O-])cc2)c1 | 7.85 | 7.82 | 7.59 | 7.96 |
| O=C(O)CN(Cc1ccc([N+](=O)[O-])cc1)S(=O)(=O)c1ccc(NC(=O)NS(=O)(=O)c2ccccc2)cc1 | 7.68 | 7.64 | < 7.00 | 7.74 |
| O=C(CN(Cc1ccc([N+](=O)[O-])cc1)S(=O)(=O)c1cccc(C(=O)O)c1)NO | 8.60 | 8.48 | 7.39 | 8.52 |
| O=C(CN(Cc1ccc([N+](=O)[O-])cc1)S(=O)(=O)c1cccs1)NO | 8.00 | 7.92 | 7.85 | 7.89 |
| O=C(O)CN(Cc1ccc([N+](=O)[O-])cc1)S(=O)(=O)c1cccc(NC(=O)NS(=O)(=O)c2ccc(F)cc2)c1 | 7.74 | 7.47 | < 7.00 | 7.82 |
| O=C(CN(Cc1ccc([N+](=O)[O-])cc1)S(=O)(=O)c1ccc(Br)cc1)NO | 7.68 | 7.68 | 7.60 | 7.89 |
| O=C(CN(Cc1ccc([N+](=O)[O-])cc1)S(=O)(=O)c1ccc([N+](=O)[O-])c(Cl)c1)NO | 8.15 | 8.22 | 7.51 | 8.15 |
| O=C(CN(Cc1ccc([N+](=O)[O-])cc1)C(=O)Nc1cccc2ccccc12)NO | 7.48 | 7.41 | < 7.00 | 7.46 |
| O=C(CN(Cc1ccc([N+](=O)[O-])cc1)S(=O)(=O)c1cc(Cl)ccc1Cl)NO | 7.77 | 7.89 | 8.05 | 8.00 |
| CS(=O)(=O)N(CC(=O)NO)Cc1ccc([N+](=O)[O-])cc1 | 7.52 | 7.62 | 7.12 | 7.72 |
| Cc1ccccc1S(=O)(=O)NC(=O)Nc1cccc(S(=O)(=O)N(CC(=O)NO)Cc2ccc([N+](=O)[O-])cc2)c1 | 8.52 | 8.70 | 7.24 | 8.55 |
| O=C(CN(Cc1ccc([N+](=O)[O-])cc1)S(=O)(=O)c1cccc(NC(=O)NS(=O)(=O)c2ccc(F)cc2)c1)NO | 8.60 | 8.85 | 7.31 | 8.74 |
